Legend:
Add1327 = assay: GCV inhibition of vector replication in vitro, viral titer by TCID50 on 293 cells; type: cell-based; conditions: A549 cells transduced with Add1327; 10 μM GCV for 5 days; repeated three times
Procedure: (§1) FIG. 6. GCV Inhibition of Av5E1aTk01i Replication In Vitro. A549 cells were transduced with either Add1327 or Add1327Tk01i. Cells were then treated with 10 uM GCV for 5 days. Following the 5 day incubation, cells were harvested, washed in HBSS, and then freeze/thawed to prepare a crude viral lysate. Titers were then performed by standard TCID50 assays on 293 cells to determine viral titer. The experiment was repeated three times.
(§2) HSV-TK was placed into the E3 region of Add1327 to form Av5E1aTK01i. A549 cells were transduced with either Add1327 or Av5E1aTK01i. Cells were then treated with 10 μM GCV for 5 days. Following the 5 day incubation cells were harvested, washed in HBSS, and then freeze/thawed to prepare a crude viral lysate. Titers were then performed by standard TCID^50 assays on 293 cells to determine viral titer. The experiment was repeated three times.

Av5E1aTK01i [1] = assay: as above; type: cell-based; conditions: A549 cells transduced with Av5E1aTK01i; 10 μM GCV for 5 days; repeated three times
Procedure: as §1, §2

Av5E1aTK01i [2] = assay: GCV inhibition of Av5E1aTk01i replication in vivo, immunohistochemistry of subcutaneous A549 tumors; set-up: species or system nude mice; conditions: A549 tumors injected with 1×10^9 pfu Av5E1aTK01i; IP GCV 75 mg/kg once a day for 5 days
Procedure: (§3) FIG. 7. GCV Inhibition of Av5E1aTk01i Replication In Vivo. Subcutaneous tumors were formed by injecting 1×10^7 A549 cells into the subcutaneous space of the right flank of nude mice. After tumors formed 1×10^9 pfu of Add1327Tk01i was injected into several animals containing tumors. After 5 days, half of the animals received 5 days of IP GCV treatment at 75 mg/kg once a day. At the end of this time frame all animals were sacrificed. Immunohistochemistry was performed on all samples for HSV-TK expression and hexon expression, the latter which is only expressed when the vector is replicating.
as §3, with “Subcutaneous” for “FIG. 7. GCV Inhibition of Av5E1aTk01i Replication In Vivo. Subcutaneous”, “tumors formed,” for “tumors formed”, “of Av5E1aTK01i” for “of Add1327Tk01i”, “5 days” for “5 days,”, “half” for “half of”

Nc1nc(O)c2ncn(COC(CO)CO)c2n1 [GCV, ganciclovir]
effect on viral titer of an adenovirus not carrying the HSV-TK gene (Add1327): no effect | drop in titer of a vector carrying the HSV-TK gene (Av5E1aTK01i [1]): greater than 4 order of magnitude | hexon expression (only expressed when the vector is replicating), immunohistochemistry (Av5E1aTK01i [2]): severely diminished

— patent US6638762B1, “Tissue-vectors specific replication and gene expression” (priority 1994, dated 2003)
